From patent US20090149482A1, “STEREOCHEMICALLY DEFINED DIPEPTIDE ESTERS OF ANTIVIRAL AGENTS FOR ENHANCED OCULAR TREATMENT” (priority 2001, published 2009)
Where two headings read alike, the source gives them in different places.

How the values were obtained:
physchem = details: buffer, pH 5.6
in vitro [1] = details: human
HSV-1 = assay: In vitro antiviral screening, CPE inhibition in HFF cells; type: cell-based, herpes simplex virus 1
in vitro [2] = details: male, New Zealand albino, rabbit, tissue homogenate
in vitro [3] = details: human, Caco-2, pH 7.4
in vitro [4] = details: human; remark: listed apart in the source
[5] = rabbits, i.v. infusion, aqueous humor
HSV-1 strain RE = assay: HSV-1 stromal keratitis rabbit model, topical treatment, SLE scores; type: in vivo; details: 13 days post-inoculation, 1% topical
Excerpt: (§1) The rabbit eye is an excellent model to study acute HSV-1 epithelial keratitis. Also, spontaneous and induced ocular HSV-1 shedding and corneal epithelial disease in rabbits has been used as a model of human ocular HSV-1 reactivation and recurrence. HSV-1 strain McKrae was used in studies for epithelial keratitis. HSV-1 strain RE was used for studies of HSV stromal keratitis.
ii) Stromal Keratitis: The experiment is similar to the part (i) experiment as far as the treatment cycles for all experimental drugs (TFT and Val-Val-ACV) are concerned. The effect of Val-Val-ACV on stromal keratitis induced by intrastromal injection with a high (20 μl of a 1×10^7 pfu/ml stock) titer of HSV-1RE strain was compared to that of TFT. Each compound at 1% concentration (TFT=33 mM, Val-Val-ACV=18.6 mM) was applied topically. The same scoring as noted in Table 4 is used for stromal keratitis. Emphasis is placed on the stromal edema and visibility into the aqueous chamber and the visualization of the pupil and iris.
A group of ten rabbits were used to study each compound. Both eyes of all rabbits were treated. Three to four groups of 10 rabbits are used in one experiment. This includes vehicle control, TFT, and the newly synthesized antiviral Val-Val-ACV.

[6] = test system: human fibroblast foreskin cells (HFF)
[7] = rat, in vivo, po
HSV-1 strain McKrae = assay: HSV-1 epithelial keratitis rabbit model, topical treatment, SLE scores; type: in vivo; details: 14 days post-inoculation, 1% topical 5 times per day
Excerpt: as §1
i) Epithelial Keratitis: A group of ten rabbits was used to study each compound. Both eyes of all rabbits were used. An aqueous vehicle (like a placebo) and one positive control were obtained using 1% TFT (Viroptic®). Each compound at 1% concentration (TFT=33 mM, Gly-Gly-ACV=26.6 mM, Val-Val-ACV=18.6 mM) were applied (50 μl) topically 5 times per day every two hours starting at 8:00 a.m. and ending at 4:00 p.m. The treatment began on the 3rd post-inoculation day and continued for 5 consecutive days. Slit-lamp examinations were performed once every day for 8 days and thereafter once every other day until lesions resolved.

Compound: CC(C)[C@H](N)C(=O)OCCOCn1cnc2c(=O)[nH]c(N)nc21 [Val-ACV, L-Valine-acyclovir]
- half-life (physchem): ~72 h
- Papp (in vitro [1]; Caco-2, pH 6): 3.01 ± 0.21 ×10⁻⁶ cm/s
- Papp (in vitro [1]; Caco-2, pH 7.4): 5.67 ± 1.13 ×10⁻⁶ cm/s
- EC50 (HSV-1; Human alphaherpesvirus 1, HFF, read-out: EC50 (concentration required to inhibit viral cytopathogenicity by 50%), HSV-1, CPE Inhibition): 9.1 µM
- EC50 (HSV-1; Human alphaherpesvirus 1, HFF, HSV-1, running text, read-out: EC50 against HSV-1): 9.1 µM
- half-life (in vitro [2]; corneal half-life, corneal tissue): 1.42 h
- half-life (in vitro [2]; t1/2 of conversion to ACV, corneal tissue homogenate): ~1.42 h
- inhibition in transport in presence of Gly-Sar (Caco-2 monolayers): 47 % inhibition
- half-life (in vitro [3]): 2.06 ± 0.138 h
- CC50 (in vitro [4]; CC50 (concentration required to inhibit cell proliferation by 50%), HSV-1): > 277 µM
- CC50 (in vitro [4]; CC50, EBV column): > 138 µM
- CC50 (in vitro [4]; CC50, HCMV column): > 277 µM
- CC50 (in vitro [4]; CC50, HSV-2 column): > 277 µM
- CC50 (in vitro [4]; CC50, VZV column): > 100 µM

Compound: CC(C)C(N)C(=O)NC(C(=O)OCCOCn1cnc2c(=O)[nH]c(N)nc21)C(C)C (stereo not drawn) [Val-Val-ACV, Val-Valacyclovir]
- MRT(aqueous) [5]: *188.39 min
- Concentration required to achieve an SLE Score of 0.2 (HSV-1 strain RE): 18.6 mM
- CC50 ([6]; EBV column): > 93.1 µM
- CC50 ([6]; HCMV column): > 186 µM
- CC50 ([6]; HSV-2 column): > 186 µM
- CC50 ([6]; VZV column): > 186 µM
- CC50 ([6]; read-out: CC50 (concentration required to inhibit cell proliferation by 50%), HSV-1): > 186 µM
- EC50 (HSV-1; read-out: EC50 against HSV-1): 6.14 µM
- amino acid intermediate metabolite after oral administration [7]: no intact amino acid intermediate metabolite VACV could be detected
- Concentration required to achieve an SLE Score of 0.3 (HSV-1 strain McKrae): 18.6 mM
